Test results published in article PMC8451667 (Emerging Microbes & Infections, 2021).
Read-outs that look alike come from different tables or passages of the source.

Assays:
[1] = system: MDCK cells; details: cited from earlier work
[2] = system: A/California/04/2009 (H1N1) virus; test: microbe, parasite or virus in culture; format: cell-based, Influenza A virus; details: for EC50: Influenza A virus
[3] = system: Ca/04 (H1N1) virus; design: species or system mice; details: mouse, in vivo
[4] = mouse, in vivo
[5] = system: several contemporary influenza A viruses; test: microbe, parasite or virus in culture; format: cell-based; details: read-out: EC50 values against all IAVs tested
[6] = in vivo; details: male, BALB/c, mouse, ip, 50 mg/kg
[7] = in vitro; details: dog

Compound | CC50 [1] [nM] | EC50 ([2]; H1N1, read-out: EC50 alone Oseltamivir (nM)) [nM] | Clinical signs: activity [3] | Clinical signs: physical appearance [3] | Influenza virus nucleoprotein in lungs by immunostaining [3] | Loss of initial body weight [3] [%] | Survival [3] [%] | Virus titers in lung and NT by TCID50 vs Ca/04-vehicle group [3] | Histopathology of brain, livers, kidneys, lungs and hearts [4] | EC50 [5] [nM] | Combination effect with oseltamivir in cell culture [2] | EC50 ([2]; H1N1, read-out: EC50 alone UAWJ280 (μM)) [nM] | Section with pneumocyte type 2 hyperplasia and hypertrophy, alveolar oedema and inflammation [3] | AUC(0-inf) [6] [µM·h] | CL/F [6] [mL/min/kg] | Cmax [6] [µM] | Tmax [6] [h] | Vd/F [6] [L/kg] | half-life [6] [h] | CC50 [7] [nM]
CCC(CC)O[C@@H]1C=C(C(=O)O)C[C@H](N)[C@H]1NC(C)=O [Oseltamivir carboxylate] | > 20000 | – | – | – | – | – | – | – | – | – | – | – | – | – | – | – | – | – | – | –
CCOC(=O)C1=C[C@@H](OC(CC)CC)[C@H](NC(C)=O)[C@@H](N)C1 [Oseltamivir, Oseltamivir phosphate, reference compound] | – | 1.77 ± 0.11 | remained alert | mild clinical signs | mild-moderate amounts of viral antigens | ~15 | 85 | trend towards reduced virus load | no signs of toxicity | – | – | – | – | – | – | – | – | – | – | –
OC12CC3CC(C1)CC(NCc1ccc(I)s1)(C3)C2 [UAWJ106] | > 100000 | – | – | – | – | – | – | – | – | – | – | – | – | – | – | – | – | – | – | –
[2H]C(NC12CC3CC(CC(O)(C3)C1)C2)c1ccc(I)s1 (stereo not shown) [UAWJ280, 3-{[(5-iodothiophen-2-yl)(D)methyl]amino}adamantan-1-ol] | – | – | minor changes in activity | mild clinical signs | moderate amounts of virus nucleoprotein | ~15 | 90 | trend towards reduced virus load | no signs of toxicity | 200 to 600 | strong synergistic antiviral effect | 300 ± 18 | up to 80% | 11.5 | 187 | 5.61 | 0.42 | 38 ± 4.4 | 2.34 | > 100000
